Data taken from the supplement of paper PMC5908809.

Experiments:
Assay in all cases: relative IC50 (inflection point of fitted viability curve, relative to fitted max inhibition); higher = less sensitive
Settings in all cases: 72 h
NK-92 (IL-2 2.5 ng/mL) = tested on: NK-92 (IL-2 2.5 ng/mL)
Procedure: (§1)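 Drug sensitivity and resistance testing: 5 concentrations over a 10,000-fold range, 72 h at 37 °C, viability by CellTiter-Glo normalised to DMSO and benzethonium chloride controls. IC50 is the inflection point of a logistic fit (min fixed at 0, max fitted), so it is relative to the fitted maximal inhibition. Kept only where fitted max inhibition is at least 50%.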

[1] = tested on: normal primary NK cells, pool 1 (3 donors) (IL-2 2.5 ng/mL)
Procedure: as §1

[2] = tested on: normal primary NK cells, pool 3 (3 donors) (IL-2 2.5 ng/mL)
Procedure: as §1

[3] = tested on: normal primary NK cells, pool 1 (3 donors), resting (IL-2 0 ng/mL)
Procedure: as §1

NKL (IL-2 2.5 ng/mL) = tested on: NKL (IL-2 2.5 ng/mL)
Procedure: as §1

DERL-7 (IL-2 2.5 ng/mL) = tested on: DERL-7 (IL-2 2.5 ng/mL)
Procedure: as §1

[4] = tested on: normal primary NK cells, pool 2 (3 donors) (IL-2 2.5 ng/mL)
Procedure: as §1

NK-YS (IL-2 2.5 ng/mL) = tested on: NK-YS (IL-2 2.5 ng/mL)
Procedure: as §1

IMC-1 (IL-2 20 ng/mL) = tested on: IMC-1 (IL-2 20 ng/mL)
Procedure: as §1

KAI3 (IL-2 2.5 ng/mL) = tested on: KAI3 (IL-2 2.5 ng/mL)
Procedure: as §1

SNK-6 (IL-2 2.5 ng/mL) = tested on: SNK-6 (IL-2 2.5 ng/mL)
Procedure: as §1

KHYG-1 (IL-2 2.5 ng/mL) = tested on: KHYG-1 (IL-2 2.5 ng/mL)
Procedure: as §1

YT (IL-2 2.5 ng/mL) = tested on: YT (IL-2 2.5 ng/mL)
Procedure: as §1

| SMILES | relative IC50 (NK-92 (IL-2 2.5 ng/mL)) | relative IC50 [1] | relative IC50 [2] | relative IC50 [3] | relative IC50 (NKL (IL-2 2.5 ng/mL)) | relative IC50 (DERL-7 (IL-2 2.5 ng/mL)) | relative IC50 [4] | relative IC50 (NK-YS (IL-2 2.5 ng/mL)) | relative IC50 (IMC-1 (IL-2 20 ng/mL)) | relative IC50 (KAI3 (IL-2 2.5 ng/mL)) | relative IC50 (SNK-6 (IL-2 2.5 ng/mL)) | relative IC50 (KHYG-1 (IL-2 2.5 ng/mL)) | relative IC50 (YT (IL-2 2.5 ng/mL)) |
| --- | --- | --- | --- | --- | --- | --- | --- | --- | --- | --- | --- | --- | --- |
| Cn1cncc1[C@@](N)(c1ccc(Cl)cc1)c1ccc2c(c1)c(-c1cccc(Cl)c1)cc(=O)n2C [Tipifarnib] | 270 nM | 1110 nM | 723 nM | 264 nM | 401 nM | 91.8 nM | 1580 nM | 61.6 nM | 1880 nM | 94.8 nM | 74.1 nM | 35.2 nM | 349 nM |
| CC[C@@]1(O)C(=O)OCc2c1cc1n(c2=O)Cc2cc3c(CN(C)C)c(O)ccc3nc2-1 [Topotecan] | 20.5 nM | 772 nM | 1030 nM | 2880 nM | 35 nM | 54.9 nM | 1320 nM | 39.6 nM | 30.8 nM | 42 nM | 40.2 nM | 33.8 nM | 52.5 nM |
| CN[C@@H]1C[C@H]2O[C@@](C)([C@@H]1OC)n1c3ccccc3c3c4c(c5c6ccccc6n2c5c31)C(=O)N[C@H]4O [UCN-01] | 39.3 nM | 97.1 nM | 126 nM | 204 nM | 53.3 nM | 27 nM | 75.8 nM | 51.1 nM | 375 nM | 21.3 nM | 15.3 nM | 24.9 nM | 184 nM |
